This passage reports IC50 results from BindingDB's records for patent WO2022104345 (Genentech, 2022).

Some results are limits rather than exact numbers.

The experiment concerns the target von Hippel-Lindau disease tumor suppressor (Homo sapiens, UniProt P40337). Briefly: VHL HEK-293 BRET Assay. The procedure:
The VHL NanoBRET Target Engagement Assay analyzes the apparent affinity of test compounds for VHL in cells by competitive displacement of a VHL NanoBRET tracer reversibly bound to a NanoLuc VHL fusion protein stably expressed in the cells.[0488] Test compounds were transferred to the assay plate (384 Well White Non-Binding Corning Assay Plates (Corning-3574)) using an Echo 555 Liquid Handler (Labcyte) in 2.5 nL increments and, as appropriate, intermediate stock concentrations of compounds, in order to prepare a titration series.50 nL of control compound (10mM; parental unlabeled VHL antagonist; see structure below) and 50 nL of DMSO (negative control) were dispensed into the appropriate control wells. DMSO was backfilled to a final volume of 50 nL as required.50nl per well of 1 mM VHL NanoBRET Tracer in DMSO (NanoBRETTM Tracer-PEG2-590 (see structure below)) was transferred into each well using an Echo 555 (ultimately yielding a final concentration of 1uM). HEK 293 RT VHL-NanoLuc stable cells were cultured in DMEM High Glucose with Pyruvate, 10% fetal bovine serum, 2 mg/mL of Geneticin Selective Antibiotic (50 mg/ml) and 2 mM HEPES (1 M). Cells were seeded in Opti-MEM (Life Technologies-11058-021), 1.7 × 10^5 cells/mL, 40 ^l per well into the assay plate, centrifuged at 500 rpm for 30 seconds and incubated for 2 hours. Max Signal control wells consisted of DMSO only treated wells. Minimum Signal control wells contained of 10 uM parental unlabeled VHL antagonist (control compound see structure below). 3X Complete Substrate plus Inhibitor Solution was prepared in Opti-MEM (consists of a 1:166 dilution of NanoBRET Nano-Glo Substrate plus a 1:500 dilution of Extracellular NanoLuc Inhibitor in Opti-MEM), and 20 ul was dispensed into each well of the 384-well plate and centrifuged at 1000 rpm for 1 minute, then incubated for 2 minutes at room temperature. Background Signal control wells were prepared without tracer for background correction steps.[0489] Plates were read using a PerkinElmer Envision Reader (model 2104-0020) equipped with Luminescence option (Mirror: BRET2 Enh (PE Barcode 659), Emission Filter: Omega 610LP (Barcode 504), 2nd Emission Filter: Umbelliferone 460 (Barcode 207), Measurement height: 6.5 mm, Measurement time: 1s). The raw BRET ratio values were calculated by dividing the acceptor emission value (610 nm) by the donor emission value (460nm) for each sample. To correct for background, the BRET ratio in the absence of tracer (average of no-tracer control samples) was subtracted from the BRET ratio of each sample. Raw BRET units were converted to milliBRET units (mBU) by multiplying each raw BRET value by 1,000. The normalized NanoBRET signal was calculated relative to the Max Signal control wells (DMSO treated control wells) and the Minimum Signal control wells. Percentage inhibition was calculated relative to the Minimum Signal control and Maximum Signal control wells. IC50 values were derived by four parameter curve fitting using the Robust method.
(In general: Bioluminescence resonance energy transfer reports proximity on the nanometre scale.)

The IC50 is the concentration that inhibits the measured activity by half. A lower IC50 goes with greater potency.

Chain of von Hippel-Lindau disease tumor suppressor (P40337 whole entry, the tested form may be a part): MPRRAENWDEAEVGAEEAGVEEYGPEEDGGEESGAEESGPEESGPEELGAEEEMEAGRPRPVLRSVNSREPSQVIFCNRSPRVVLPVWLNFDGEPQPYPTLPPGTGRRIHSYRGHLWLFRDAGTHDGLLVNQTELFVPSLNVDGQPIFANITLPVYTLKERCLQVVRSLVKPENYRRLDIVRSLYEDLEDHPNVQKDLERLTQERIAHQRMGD

The molecule `CNC(=O)[C@@H]1C[C@@H](O)CN1C(=O)[C@H](C(C)C)n1cc(C2CC2)nn1` [WO2022104345, Compound 11] returned an IC50 of 3 µM.

Turning to `CNC(=O)[C@@H]1C[C@@H](O)CN1C(=O)[C@@H](C(C)C)n1cc(C2CC2)nn1` [WO2022104345, Compound 12], the IC50 is > 100 µM.

Molecule `CNC(=O)[C@@H]1C[C@@H](OC(C)=O)CN1C(=O)[C@H](n1cc(C2CC2)nn1)C(C)(C)C` [WO2022104345, Compound 13] gave an IC50 of 62.8 µM.

Consider `CNC(=O)[C@@H]1C[C@@H](O)CN1C(=O)[C@H](C(C)C)n1cc(C2(C)CC2)nn1` [WO2022104345, Compound 21], for which the midpoint of inhibition, the IC50, lay at 1.21 µM.

Take `CNC(=O)[C@@H]1C[C@@H](O)CN1C(=O)C(=C(C)C)n1cc(C2CC2)nn1` [WO2022104345, Compound 32]: inhibition was half-maximal at 4.75 µM (IC50).

`CNC(=O)[C@@H]1C[C@@H](O)CN1C(=O)[C@H](C(C)C)n1cc(-c2cncs2)nn1` [WO2022104345, Compound 41] had an IC50 of 0.9 µM.

For the molecule `CNC(=O)[C@@H]1C[C@@H](O)CN1C(=O)[C@H](C1CCNCC1)n1cc(C2CC2)nn1` [WO2022104345, Example S7], the IC50 was > 100 µM.

With `CNC(=O)[C@@H]1C[C@@H](O)CN1C(=O)[C@H](C1CCN(C)CC1)n1cc(C2CC2)nn1` [WO2022104345, Example S8], the IC50 is > 100 µM.
